Measured values published in publication PMC8635623, “A click chemistry approach to pleuromutilin derivatives, evaluation of anti-MRSA activity and elucidation of binding mode by surface plasmon resonance and molecular docking” (Journal of Enzyme Inhibition and Medicinal Chemistry, 2021).
In brackets after ≈: the same amount, converted by molar mass.

Experiments:
Test in all cases: MIC/MBC by broth micro dilution
[1] = test system: MRSA ATCC 43300; assay type: cell-based, methicillin-resistant S. aureus; settings: Staphylococcus aureus; for MIC: 37 °C, 24 h, read-out: MIC; for MBC: lowest concentration reducing viable counts by 99.9%
Method: (§1) All the synthesised 1,2,3-triazole linked pleuromutilin analogues were screened for in vitro antibacterial activities against methicillin-resistant S. aureus (ATCC 43300), S. aureus (ATCC 29213), and two clinical strains of S. aureus (AD3 and 144, isolated from Guangdong Province, China). The MICs and MBCs of the synthesised pleuromutilin derivatives along with pleuromutilin and tiamulin used as the reference antibacterial drugs, were determined by the broth micro dilution methods according to the Clinical and Laboratory Standards Institute (CLSI)[18].
(§2) The MIC of these novel pleuromutilin derivatives against methicillin-resistant S. aureus (ATCC 43300), S. aureus (ATCC 29213), S. aureus (AD3) and S. aureus (144) were determined by using pleuromutilin and tiamulin as positive control. MIC values were determined by the broth micro dilution methods in accordance with the Clinical and Laboratory Standards Institute (2012). Stock solutions of these compounds were dissolved in methanol to make a stock solution with a concentration of 1280 µg/mL. The working solutions (640 µg/mL) were obtained by diluting stock solutions in sterile Mueller-Hinton (MH) broth. The bacterial solution and solutions of these compounds with a final concentration of 0.016–32 µg/mL were distributed into 96-well plates, with a total volume of 200 µL. Three parallel experiments for each compound concentration. The plates were incubated at 37 °C for 24 h.
(§3) MBC values were determined according to CLSI (2003) and previously report with slightly modification[18]^,[28]^,[31]. After obtaining the MIC results, the 96-well plates were incubated at 37 °C for 24 h. 100 µL of the bacterial solution from the wells with no visible growth was inoculated on MH agar plates. The MH agar plates were incubated at 37 °C for colony count. The MBC was determined as the lowest concentration of compound, which reduces the viable counts for 99.9%.

[2] = test system: S. aureus AD3; assay type: cell-based; settings: Staphylococcus aureus, S. aureus AD3 (clinical strain); for MIC: 37 °C, 24 h; for MBC: lowest concentration reducing viable counts by 99.9%
Method: as §1, §2, §3

[3] = test system: S. aureus 144; assay type: cell-based; settings: Staphylococcus aureus, S. aureus 144 (clinical strain); for MIC: 37 °C, 24 h; for MBC: lowest concentration reducing viable counts by 99.9%
Method: as §1, §2, §3

[4] = test system: S. aureus ATCC 29213; assay type: cell-based; settings: Staphylococcus aureus; for MIC: ATCC29213, 37 °C, 24 h; for MBC: ATCC29213, lowest concentration reducing viable counts by 99.9%
Method: as §1, §2, §3

| MIC [1] [µg/mL] | MIC [2] [µg/mL] | MIC [3] [µg/mL] | MIC [4] [µg/mL] | SMILES | MBC [1] [µg/mL] | MBC [2] [µg/mL] | MBC [3] [µg/mL] | MBC [4] [µg/mL] |
| --- | --- | --- | --- | --- | --- | --- | --- | --- |
| 8 (≈ 14.8 µM) | 16 (≈ 29.5 µM) | 32 (≈ 59.1 µM) | 16 (≈ 29.5 µM) | C=C[C@]1(C)C[C@@H](OC(=O)Cn2cc(CN3CCN(C)CC3)nn2)[C@]2(C)[C@H](C)CC[C@]3(CCC(=O)[C@H]32)[C@@H](C)[C@@H]1O [Compound 48, 22-(2-(4-(4-Methyl-piperazin-1-yl)-methyl)-1H-1,2,3-triazol-1-yl)-22-deoxy pleuromutilin] | 16 (≈ 29.5 µM) | 32 (≈ 59.1 µM) | 32 (≈ 59.1 µM) | 32 (≈ 59.1 µM) |
| 4 (≈ 6.62 µM) | 8 (≈ 13.2 µM) | 8 (≈ 13.2 µM) | 8 (≈ 13.2 µM) | C=C[C@]1(C)C[C@@H](OC(=O)Cn2cc(CN3CCN(c4ccccc4)CC3)nn2)[C@]2(C)[C@H](C)CC[C@]3(CCC(=O)[C@H]32)[C@@H](C)[C@@H]1O [Compound 49, 22-(2-(4-(4-Phenyl-piperazin-1-yl)-methyl)-1H-1,2,3-triazol-1-yl)-22-deoxy pleuromutilin] | 4 (≈ 6.62 µM) | 16 (≈ 26.5 µM) | 16 (≈ 26.5 µM) | 8 (≈ 13.2 µM) |
| 4 (≈ 6.47 µM) | 8 (≈ 12.9 µM) | 8 (≈ 12.9 µM) | 8 (≈ 12.9 µM) | C=C[C@]1(C)C[C@@H](OC(=O)Cn2cc(CN3CCN(c4ccc(C)cc4)CC3)nn2)[C@]2(C)[C@H](C)CC[C@]3(CCC(=O)[C@H]32)[C@@H](C)[C@@H]1O [Compound 52, 22-(2-(4-(4-(p-Tolyl)-piperazin-1-yl)-methyl)-1H-1,2,3-triazol-1-yl)-22-deoxy pleuromutilin] | 8 (≈ 12.9 µM) | 32 (≈ 51.8 µM) | 16 (≈ 25.9 µM) | 8 (≈ 12.9 µM) |
| 4 (≈ 6.43 µM) | 8 (≈ 12.9 µM) | 8 (≈ 12.9 µM) | 8 (≈ 12.9 µM) | C=C[C@]1(C)C[C@@H](OC(=O)Cn2cc(CN3CCN(c4cccc(F)c4)CC3)nn2)[C@]2(C)[C@H](C)CC[C@]3(CCC(=O)[C@H]32)[C@@H](C)[C@@H]1O [Compound 54, 22-(2-(4-(4-(3-Fluorophenyl)-piperazin-1-yl)-methyl)-1H-1,2,3-triazol-1-yl)-22-deoxy pleuromutilin] | 4 (≈ 6.43 µM) | 16 (≈ 25.7 µM) | 16 (≈ 25.7 µM) | 8 (≈ 12.9 µM) |
| 4 (≈ 6.43 µM) | 8 (≈ 12.9 µM) | 8 (≈ 12.9 µM) | 8 (≈ 12.9 µM) | C=C[C@]1(C)C[C@@H](OC(=O)Cn2cc(CN3CCN(c4ccc(F)cc4)CC3)nn2)[C@]2(C)[C@H](C)CC[C@]3(CCC(=O)[C@H]32)[C@@H](C)[C@@H]1O [Compound 55, 22-(2-(4-(4-(4-Fluorophenyl)-piperazin-1-yl)-methyl)-1H-1,2,3-triazol-1-yl)-22-deoxy pleuromutilin] | 4 (≈ 6.43 µM) | 16 (≈ 25.7 µM) | 32 (≈ 51.5 µM) | 8 (≈ 12.9 µM) |
| 4 (≈ 6.27 µM) | 16 (≈ 25.1 µM) | 16 (≈ 25.1 µM) | 8 (≈ 12.5 µM) | C=C[C@]1(C)C[C@@H](OC(=O)Cn2cc(CN3CCN(c4ccccc4Cl)CC3)nn2)[C@]2(C)[C@H](C)CC[C@]3(CCC(=O)[C@H]32)[C@@H](C)[C@@H]1O [Compound 56, 22-(2-(4-(4-(2-Chlorophenyl)-piperazin-1-yl)-methyl)-1H-1,2,3-triazol-1-yl)-22-deoxy pleuromutilin] | 4 (≈ 6.27 µM) | 32 (≈ 50.1 µM) | 32 (≈ 50.1 µM) | 32 (≈ 50.1 µM) |
| 4 (≈ 6.27 µM) | 16 (≈ 25.1 µM) | 8 (≈ 12.5 µM) | 8 (≈ 12.5 µM) | C=C[C@]1(C)C[C@@H](OC(=O)Cn2cc(CN3CCN(c4cccc(Cl)c4)CC3)nn2)[C@]2(C)[C@H](C)CC[C@]3(CCC(=O)[C@H]32)[C@@H](C)[C@@H]1O [Compound 57, 22-(2-(4-(4-(3-Chlorophenyl)-piperazin-1-yl)-methyl)-1H-1,2,3-triazol-1-yl)-22-deoxy pleuromutilin] | 8 (≈ 12.5 µM) | 32 (≈ 50.1 µM) | 16 (≈ 25.1 µM) | 16 (≈ 25.1 µM) |
| 4 (≈ 6.27 µM) | 8 (≈ 12.5 µM) | 16 (≈ 25.1 µM) | 8 (≈ 12.5 µM) | C=C[C@]1(C)C[C@@H](OC(=O)Cn2cc(CN3CCN(c4ccc(Cl)cc4)CC3)nn2)[C@]2(C)[C@H](C)CC[C@]3(CCC(=O)[C@H]32)[C@@H](C)[C@@H]1O [Compound 58, 22-(2-(4-(4-(4-Chlorophenyl)-piperazin-1-yl)-methyl)-1H-1,2,3-triazol-1-yl)-22-deoxy pleuromutilin] | 4 (≈ 6.27 µM) | 32 (≈ 50.1 µM) | 32 (≈ 50.1 µM) | 16 (≈ 25.1 µM) |
| 4 (≈ 6.31 µM) | 4 (≈ 6.31 µM) | 8 (≈ 12.6 µM) | 8 (≈ 12.6 µM) | C=C[C@]1(C)C[C@@H](OC(=O)Cn2cc(CN3CCN(c4ccccc4OC)CC3)nn2)[C@]2(C)[C@H](C)CC[C@]3(CCC(=O)[C@H]32)[C@@H](C)[C@@H]1O [Compound 59, 22-(2-(4-(4-(2-Methoxyphenyl)-piperazin-1-yl)-methyl)-1H-1,2,3-triazol-1-yl)-22-deoxy pleuromutilin] | 4 (≈ 6.31 µM) | 16 (≈ 25.2 µM) | 16 (≈ 25.2 µM) | 8 (≈ 12.6 µM) |
| 4 (≈ 6.31 µM) | 4 (≈ 6.31 µM) | 8 (≈ 12.6 µM) | 8 (≈ 12.6 µM) | C=C[C@]1(C)C[C@@H](OC(=O)Cn2cc(CN3CCN(c4cccc(OC)c4)CC3)nn2)[C@]2(C)[C@H](C)CC[C@]3(CCC(=O)[C@H]32)[C@@H](C)[C@@H]1O [Compound 60, 22-(2-(4-(4-(3-Methoxyphenyl)-piperazin-1-yl)-methyl)-1H-1,2,3-triazol-1-yl)-22-deoxy pleuromutilin] | 8 (≈ 12.6 µM) | 16 (≈ 25.2 µM) | 16 (≈ 25.2 µM) | 8 (≈ 12.6 µM) |
| 4 (≈ 6.31 µM) | 4 (≈ 6.31 µM) | 8 (≈ 12.6 µM) | 4 (≈ 6.31 µM) | C=C[C@]1(C)C[C@@H](OC(=O)Cn2cc(CN3CCN(c4ccc(OC)cc4)CC3)nn2)[C@]2(C)[C@H](C)CC[C@]3(CCC(=O)[C@H]32)[C@@H](C)[C@@H]1O [Compound 61, 22-(2-(4-(4-(4-Methoxyphenyl)-piperazin-1-yl)-methyl)-1H-1,2,3-triazol-1-yl)-22-deoxy pleuromutilin] | 16 (≈ 25.2 µM) | 8 (≈ 12.6 µM) | 16 (≈ 25.2 µM) | 8 (≈ 12.6 µM) |
| 4 (≈ 6.45 µM) | 4 (≈ 6.45 µM) | 8 (≈ 12.9 µM) | 8 (≈ 12.9 µM) | C=C[C@]1(C)C[C@@H](OC(=O)Cn2cc(CN3CCN(c4ccccc4O)CC3)nn2)[C@]2(C)[C@H](C)CC[C@]3(CCC(=O)[C@H]32)[C@@H](C)[C@@H]1O [Compound 65, 22-(2-(4-(4-(2-Hydroxyphenyl)-piperazin-1-yl)-methyl)-1H-1,2,3-triazol-1-yl)-22-deoxy pleuromutilin] | 8 (≈ 12.9 µM) | 8 (≈ 12.9 µM) | 16 (≈ 25.8 µM) | 8 (≈ 12.9 µM) |
| 4 (≈ 6.45 µM) | 8 (≈ 12.9 µM) | 8 (≈ 12.9 µM) | 8 (≈ 12.9 µM) | C=C[C@]1(C)C[C@@H](OC(=O)Cn2cc(CN3CCN(c4cccc(O)c4)CC3)nn2)[C@]2(C)[C@H](C)CC[C@]3(CCC(=O)[C@H]32)[C@@H](C)[C@@H]1O [Compound 66, 22-(2-(4-(4-(3-Hydroxyphenyl)-piperazin-1-yl)-methyl)-1H-1,2,3-triazol-1-yl)-22-deoxy pleuromutilin] | 8 (≈ 12.9 µM) | 32 (≈ 51.6 µM) | 16 (≈ 25.8 µM) | 16 (≈ 25.8 µM) |
| 8 (≈ 12.9 µM) | 16 (≈ 25.8 µM) | 32 (≈ 51.6 µM) | 16 (≈ 25.8 µM) | C=C[C@]1(C)C[C@@H](OC(=O)Cn2cc(CN3CCN(c4ccc(O)cc4)CC3)nn2)[C@]2(C)[C@H](C)CC[C@]3(CCC(=O)[C@H]32)[C@@H](C)[C@@H]1O [Compound 67, 22-(2-(4-(4-(4-Hydroxyphenyl)-piperazin-1-yl)-methyl)-1H-1,2,3-triazol-1-yl)-22-deoxy pleuromutilin] | 16 (≈ 25.8 µM) | > 32 | 32 (≈ 51.6 µM) | 32 (≈ 51.6 µM) |
| 4 (≈ 6.42 µM) | 8 (≈ 12.8 µM) | 8 (≈ 12.8 µM) | 8 (≈ 12.8 µM) | C=CC1(C)CC(OC(=O)Cn2cc(CN(C3CCCCC3)C3CCCCC3)nn2)C2(C)C(C)CCC3(CCC(=O)C32)C(C)C1O (centres unmarked) [Compound 81, 22-(2-(4-(Dicyclohexylamino)methyl)-1H-1,2,3-triazol-1-yl)-22-deoxy pleuromutilin] | 8 (≈ 12.8 µM) | 32 (≈ 51.4 µM) | 16 (≈ 25.7 µM) | 16 (≈ 25.7 µM) |
| 8 (≈ 15.1 µM) | 16 (≈ 30.3 µM) | 16 (≈ 30.3 µM) | 16 (≈ 30.3 µM) | C=CC1(C)CC(OC(=O)Cn2cc(CN3CCOCC3)nn2)C2(C)C(C)CCC3(CCC(=O)C32)C(C)C1O (centres unmarked) [Compound 82, 22-(2-(4-(Morpholinomethyl)methyl)-1H-1,2,3-triazol-1-yl)-22-deoxy pleuromutilin] | 8 (≈ 15.1 µM) | 32 (≈ 60.5 µM) | 32 (≈ 60.5 µM) | 16 (≈ 30.3 µM) |
